Legend:
[1] = test system: sister chromatid separation and segregation in Xenopus egg extracts; assay: Anaphase and mitotic exit in CSF-arrested Xenopus egg extracts with sperm nuclei; details: added 10 minutes before Ca2+
separase Ser1126 = molecular target: T1, separase Ser1126 (Homo sapiens, UniProt Q14674); assay: Ser1126-specific in vitro kinase assays with LC-MS/MS; type: biochemical; details: securin/separase from unsynchronized 293T cells, 1 mM ATP
T1 construct: Full-length human separase was PCR-amplified from a human fetal thymus cDNA library; made in house; host or cells: 293T cells (cotransfected, unsynchronized)
T1 sequence (Q14674 whole entry): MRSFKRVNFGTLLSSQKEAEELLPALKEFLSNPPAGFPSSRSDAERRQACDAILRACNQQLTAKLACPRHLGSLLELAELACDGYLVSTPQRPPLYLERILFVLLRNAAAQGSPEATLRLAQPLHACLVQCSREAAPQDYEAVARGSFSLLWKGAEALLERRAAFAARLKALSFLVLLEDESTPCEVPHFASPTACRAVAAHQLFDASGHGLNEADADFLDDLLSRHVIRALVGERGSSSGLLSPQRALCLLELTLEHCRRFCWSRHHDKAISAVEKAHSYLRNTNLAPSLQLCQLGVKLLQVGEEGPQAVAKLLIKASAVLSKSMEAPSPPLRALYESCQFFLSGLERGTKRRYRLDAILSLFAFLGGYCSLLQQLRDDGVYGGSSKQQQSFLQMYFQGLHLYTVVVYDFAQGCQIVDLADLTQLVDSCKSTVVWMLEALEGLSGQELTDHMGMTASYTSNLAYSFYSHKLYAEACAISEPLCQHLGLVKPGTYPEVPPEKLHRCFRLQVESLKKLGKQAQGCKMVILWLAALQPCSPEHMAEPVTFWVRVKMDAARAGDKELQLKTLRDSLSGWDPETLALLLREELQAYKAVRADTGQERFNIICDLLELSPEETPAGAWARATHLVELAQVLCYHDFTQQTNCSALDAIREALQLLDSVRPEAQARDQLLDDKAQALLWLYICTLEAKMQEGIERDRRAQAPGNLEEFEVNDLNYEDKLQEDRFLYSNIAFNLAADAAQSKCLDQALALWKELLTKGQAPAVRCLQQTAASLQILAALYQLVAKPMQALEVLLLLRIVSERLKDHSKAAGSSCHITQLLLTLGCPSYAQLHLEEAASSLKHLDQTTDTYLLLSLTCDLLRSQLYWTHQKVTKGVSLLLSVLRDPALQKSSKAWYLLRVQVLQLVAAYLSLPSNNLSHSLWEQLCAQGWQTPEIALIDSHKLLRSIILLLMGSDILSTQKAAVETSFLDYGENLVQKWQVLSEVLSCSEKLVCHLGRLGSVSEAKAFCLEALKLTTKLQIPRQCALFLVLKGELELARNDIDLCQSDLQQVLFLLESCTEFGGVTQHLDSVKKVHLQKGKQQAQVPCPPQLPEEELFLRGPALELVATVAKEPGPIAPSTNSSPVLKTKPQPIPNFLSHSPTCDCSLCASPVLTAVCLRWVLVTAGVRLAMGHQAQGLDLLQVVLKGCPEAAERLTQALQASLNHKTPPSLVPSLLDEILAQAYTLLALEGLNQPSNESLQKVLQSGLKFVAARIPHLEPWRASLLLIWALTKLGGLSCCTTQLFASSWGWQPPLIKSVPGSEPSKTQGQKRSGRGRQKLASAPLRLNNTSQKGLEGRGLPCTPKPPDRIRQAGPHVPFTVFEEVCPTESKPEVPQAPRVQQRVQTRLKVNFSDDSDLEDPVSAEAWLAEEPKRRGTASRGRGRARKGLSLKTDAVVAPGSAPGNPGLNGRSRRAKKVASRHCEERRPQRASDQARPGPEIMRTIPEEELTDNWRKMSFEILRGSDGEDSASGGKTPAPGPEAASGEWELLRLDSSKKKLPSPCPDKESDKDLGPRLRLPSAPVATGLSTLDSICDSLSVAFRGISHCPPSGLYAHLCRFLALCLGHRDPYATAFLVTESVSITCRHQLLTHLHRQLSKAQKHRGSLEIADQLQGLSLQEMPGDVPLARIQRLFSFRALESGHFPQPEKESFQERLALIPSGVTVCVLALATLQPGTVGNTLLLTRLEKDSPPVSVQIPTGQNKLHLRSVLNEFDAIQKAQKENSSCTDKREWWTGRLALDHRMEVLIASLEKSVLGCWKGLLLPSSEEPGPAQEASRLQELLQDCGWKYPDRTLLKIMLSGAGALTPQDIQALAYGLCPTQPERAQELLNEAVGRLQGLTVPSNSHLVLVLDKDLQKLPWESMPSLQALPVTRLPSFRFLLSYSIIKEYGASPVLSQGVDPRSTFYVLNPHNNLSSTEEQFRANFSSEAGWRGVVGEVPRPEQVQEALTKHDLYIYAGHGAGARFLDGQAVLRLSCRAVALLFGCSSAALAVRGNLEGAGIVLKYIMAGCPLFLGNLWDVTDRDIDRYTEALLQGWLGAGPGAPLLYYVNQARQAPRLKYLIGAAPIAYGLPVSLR
T1 sequence (O95997 whole entry partner): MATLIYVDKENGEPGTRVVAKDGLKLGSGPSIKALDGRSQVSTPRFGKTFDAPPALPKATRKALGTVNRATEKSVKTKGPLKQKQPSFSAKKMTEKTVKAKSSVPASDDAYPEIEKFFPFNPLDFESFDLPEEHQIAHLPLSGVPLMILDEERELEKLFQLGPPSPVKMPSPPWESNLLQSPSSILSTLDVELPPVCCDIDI
Text: (A) depicts FACS and Western analyses of synchronized HeLaS3 cells undergoing mitosis. (B) depicts quantification of cell cycle distribution and phosphorylation status of separase at Ser1126 for the samples shown in (A). (C) depicts a nano-scale microcapillary LC-MS/MS analysis of native separase phosphorylation state. Shown are the selected reaction, extracted-ion chromatograms corresponding to the unphosphorylated (upper trace) and phosphorylated (bottom trace) Glu1115-Lys1130 native tryptic peptide (blue and green) and heavy internal standard (brown and red). Inset: Averaged selected reaction m/z window corresponding to the y10-ion fragment of light and heavy peptides. (D) depicts […] in vitro kinase assays. Shown is the phosphorylation status of Ser1126 in percent as determined by incubation of affinity-purified securin/separase with various pure kinases in the presence of ATP (1 mM) followed by LC-MS/MS analysis. […] Top panel: Mock treatment.
For kinase assays, the securin/separase complex was isolated from unsynchronized, transfected cells and eluted with TEV protease without prior incubation in Xenopus extracts. […] Reactions with polo and auroraA (a gift from E. A. Nigg) were carried out as described (Bischoff et al. (1998) EMBO J 17:3052; Descombes et al. (1998) EMBO J 17:1328). All kinase assays were done in the presence of 1 mM ATP.
As a substrate, overexpressed securin/separase purified from transfected, unsynchronized 293T cells was used.
Coomassie stained securin and separase bands were digested in-gel (Shevchenko et al. (1996) Anal. Chem. 68:850). Extracted peptides were separated by nano-scale microcapillary high performance liquid chromatography (HPLC) as described (Gygi et al. (1999) Mol. Cell Biol. 19:1720). Eluting peptides were ionized by electrospray ionization and analyzed by an LCQ-DECA ion trap mass spectrometer (ThermoFinnigan). Peptide ions reaching a certain threshold were automatically selected for sequence analysis by tandem mass spectrometry. Peptide sequence was determined by data-searching against the non redundant human protein database using the Sequest algorithm (Eng et al. (1994) J. Am. Soc. Mass Spectrom. 5:1579).

[2] = test system: human metaphase chromosomes; assay: Sister chromatid separation of human metaphase chromosomes in Xenopus extracts; details: for Separation of sister chromatids: high concentrations of Δ90 (400 nm), human chromosomes in Xenopus extract
Description: CSF extracts were prepared as described (Murray (1991) Methods Cell Biol. 36:581). For sister chromatid separation assays two sources of chromosomes were used, Xenopus sperm nuclei and isolated human metaphase chromosomes. Xenopus sperm nuclei were prepared as described by Philpott et al. ((1991) Cell 65:569). When they were used, the protocol developed by Murray and colleagues was followed (Holloway et al. (1993) Cell 73:1393) with the exception that Δ90 was usually added later, about 50 minutes after CSF. Re-isolation of Xenopus chromosomes was done according to Funabiki and Murray ((2000) Cell 102:411). When human chromosomes were used, the KCl concentration was lowered to 70 mM. Δ90 and isolated securin/separase (0.1 volumes) were added 20 minutes after addition of human chromosomes. After additional 20 minutes at 20° C., Ca^2+ (0.6 mM) was added. Chromosomes were re-isolated from extracts 50 minutes thereafter. Analysis by immunofluorescence microscopy was performed as described (Wood et al. (1997) Cell 91:357). The percentage of separated chromosomes was calculated according to the following equation: % separation=(number of single chromatids/2)/[(number of single chromatids/2)+number of unseparated chromosomes].
It was next determined whether the PM-2 mutant would override the inhibition not only of cohesin cleavage but also of sister chromatid separation in high-Δ90 extracts. Since the biochemical experiments utilized human separase, the existing assay was modified to examine the separation of human metaphase chromosomes in Xenopus extracts. […] In the presence of wild type separase (supplied as purified securin/separase complexes) and high concentrations of Δ90 (400 nm), only 2.7% of the chromosomes separated (FIG. 5A, row 2). […] In contrast, PM-2 (Ser 1126) led to maximal separation of sister chromatids (68%) under the same conditions (FIG. 5A, row 5). Similar results were obtained with PM-2/4 and PM-2^Asp; they caused 68% and 66% separation, respectively (FIG. 5A, rows 4 and 7). A Western blot for separase was performed to assure that similar amounts of the various separases had been used in the experiment (FIG. 5B).

cohesin^hSCC1 = assay: In vitro separase activity assay (self-cleavage and cohesin hSCC1 cleavage) after low- or high-Δ90 extract; type: biochemical, human; details: for Separase self-cleavage and cohesin hSCC1 cleavage after low- versus high-Δ90 extract: low or high CDC2 activity extract
Text: To address whether high CDC2 activity blocked the activity of separase, an in vitro separase activity assay was developed. Plasmids coding for human securin and tagged human separase were transfected into 293T cells as follows.
Human cohesin^hSCC1 was isolated from the a human fetal thymus cDNA library using the following primers: 5′-[…]-3′ (SEQ ID NO:8) and 5′-[…]-3′ (SEQ ID NO:9). Both separase and securin were subcloned into the multi-purpose expression vector pCS2 (various versions). The resulting plasmids were utilized for transfection into 293T cells and for in vitro expression in TNT™ reticulocyte lysate (Promega). For immunoprecipitation of separase, two types of N-terminal tags were fused to the amino terminus of separase, three HA tags (FIG. 2A) or two IgG binding domains of protein A followed by four TEV-protease cleavage sequences (ZZ-TEV4-tag; FIGS. 2B, 4B, 5, 6B to E, and 7). Both versions of separase gave essentially the same results. Site directed mutagenesis was performed using either the QuickChange kit (Stratagene) or the GeneEditor system (Promega). All mutations were confirmed by DNA sequencing of manipulated regions.
To obtain securin/separase complexes, 293T cells were cotransfected with separase and securin expression plasmids using a calcium phosphate based method and subsequently synchronized as described (Fang et al. (1998) Mol. Cell 2:163). Two days after transfection, the nocodazole-arrested cells were lysed in 20 mM Tris/HCl pH 7.7, 100 mM NaCl, 1 mM NaF, 20 mM β-glycerophosphate, 5 mM MgCl2, 0.1% Triton X100, 1 μM microcystin-LR. After ultra-centrifugation at 100,000 g, the supernatant was mixed with anti-HA agarose (3F10, Roche) or IgG-sepharose (Amersham), depending on the tag of separase. For a 10 cm dish of confluent, transfected cells (corresponding to roughly 100 μl cell pellet), 20 μl of beads were used. After rotation overnight at 4° C. the beads were washed twice with CSF-XB (Murray (1991) Methods Cell Biol. 36:581) and then incubated with various Xenopus egg extracts. To prepare low- or high-Δ90 extracts, CSF extracts were supplemented with various concentrations of Δ90. Fifteen minutes thereafter, Ca^2+ was added (0.6 mM) and the extracts were further incubated for 15 minutes before adding them to the securin/separase beads. After 1 hour, the beads were washed twice with CSF-XB, once with 30 mM Hepes/KOH pH 7.7, 30% glycerol, 25 mM NaF, 25 mM KCl, 5 mM MgCl2, 1.5 mM ATP, 1 mM EGTA, and eluted with HA peptide (1 mg/ml) or TEV-protease (2 mg/ml) in 20 to 50 μl. Two μl of separase were combined with 2 μl of in vitro translated ^35S-cohesin^hSCC1 and incubated for 1 hour at 37° C. Alternatively, 2 μl of isolated metaphase chromosomes (8.7 μg DNA per μl) were used as a substrate.
Each mutant was incubated in either low- (odd numbered lanes) or high-Δ90 extract (even numbered lanes) before analyzing separase self-cleavage by immuno-blot (top panels) and cohesin^hSCC1 cleavage by autoradiography (middle and lower panels).

separase = assay: Re-inhibition of pre-activated separase by recombinant securin (cohesin hSCC1 cleavage); type: biochemical, human; details: equal amounts of separase
Description: FIGS. 7A-7C depict the independent inhibition of separase activity by phosphorylation of separase and by binding of securin. (A) depicts a Western blot (upper panel) and cohesin^hSCC1 cleavage activity using isolated chromosomes as substrate (lower panel). Lane 2: Consecutive treatment of separase with high-Δ90 extract twice. (B) depicts separase that had been pre-activated in low-Δ90 extract that was eluted and incubated with recombinant securin (lanes 2 and 3) or reference buffer (lane 1) for one hour on ice. Subsequently, its cleavage activity towards in vitro translated ^35S-cohesin^hSCC1 was tested (upper panel). The separase concentration in each reaction was 4 nM, as estimated by Coomassie staining. To compare wild type separase with PM-2/4 mutant separase in its ability to bind securin the same experiment was repeated with PM-2/4 (lower panel). Roughly equal separase concentrations in both cases were assured by comparative immunoblotting (see FIG. 4B, lanes 15 and 17). (C) depicts a model for the dual inhibition of separase in metaphase and its activation at anaphase onset. PPase denotes an unknown protein phosphatase that is proposed to act on phosphorylated separase.
To determine whether securin can inhibit separase independent of the phosphorylation state of separase, and whether separase that has already been activated and has therefore cleaved itself be re-inhibited by either of the two inhibitory mechanisms, active separase was generated by treating a securin/separase complex with a low-Δ90 extract (L; FIG. 7) to degrade securin and dephosphorylate separase. […] Active separase on beads was then incubated with either recombinant securin or a high-Δ90 extract and assayed for its ability to cleave cohesin^hSCC1. […]

recombinant securin = test system: T2, recombinant securin
T2 sequence (O95997 2-202, species assumed, looked up): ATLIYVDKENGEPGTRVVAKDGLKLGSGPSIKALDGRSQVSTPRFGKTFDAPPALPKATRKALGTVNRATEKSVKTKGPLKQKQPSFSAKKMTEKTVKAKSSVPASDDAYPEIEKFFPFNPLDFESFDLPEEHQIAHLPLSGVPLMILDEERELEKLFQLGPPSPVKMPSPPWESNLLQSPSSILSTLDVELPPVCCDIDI

Phosphorylation of Ser1126 by kinase (separase Ser1126)	Separase self-cleavage and cohesin hSCC1 cleavage after low- versus high-Δ90 extract (cohesin^hSCC1)	Compound	Separation of sister chromatids [2] [%]	other results
–	no longer inhibited	PM-2/4: separase phospho-mutant, sites 2 (Ser1126) and 4 (Thr1346) changed to alanine	68	Maximal degree of sister chromatid separation ([2]; low-Δ90 extract plus saturating level of PM-2/4, data not shown): about 70%; Separase activity relative to wild type after low-Δ90 extract (cohesin^hSCC1; low-Δ90 extract): higher than that of wild type separase; Inhibition of separase by securin, wild type versus mutant (separase): inhibited at the same concentration of securin
–	still largely resistant to inhibition	PM-2: single site separase phospho-mutant, site 2 (Ser1126) changed to alanine	68	Separase activity relative to wild type after low-Δ90 extract (cohesin^hSCC1; low-Δ90 extract): higher than that of wild type separase
not at all	–	auroraA: pure kinase, a gift from E. A. Nigg	–	–
not at all	–	polo: pure kinase, a gift from E. A. Nigg	–	–

The next lines start with the compound.

Compound	Phosphorylation of Ser1126 by kinase (separase Ser1126)	Separase self-cleavage and cohesin hSCC1 cleavage after low- versus high-Δ90 extract (cohesin^hSCC1)	Separation of sister chromatids [2] [%]	other results
CC[C@H](CO)Nc1nc(NCc2ccccc2)c2ncn(C(C)C)c2n1 [roscovitine]	–	–	–	Rescue of anaphase (sister separation and segregation) blocked in high-Δ90 extract [1]: rescued both events with high efficiency
CaMKII: calmodulin-dependent kinase II, from New England Biolabs	not at all	–	–	–
MAPK (ERK2): pure kinase from New England Biolabs	efficiently phosphorylated	–	–	–
PM-2^Asp: separase with mutation of Ser1126 to aspartate	–	still largely resistant to inactivation	66	–
PM-4: single site separase phospho-mutant, site 4 (Thr1346) changed to alanine	–	inactivated by high CDC2 activity albeit less so than wild type separase	38	Separase activity relative to wild type after low-Δ90 extract (cohesin^hSCC1; low-Δ90 extract): higher than that of wild type separase
catalytically inactive separase: mutant separase in which the catalytic cysteine residue was replaced by a serine	–	–	0.4	Separase self-cleavage (cohesin^hSCC1; low-Δ90 extract): not cleaved
human separase phospho-mutant PM-2/4 (Ser1126 and Thr1346 changed to alanine), with N-terminal ZZ-TEV4-tag	–	–	–	cohesin^hSCC1 cleavage by pre-activated separase (recombinant securin): both were inhibited at the same concentration of securin
wild type separase: human separase protein (SEQ ID NO:3), tagged, purified as securin/separase complex from 293T cells	–	efficiently at low but not at high CDC2 activity	2.7	Inhibition of separase by securin, wild type versus mutant (separase): inhibited at the same concentration of securin

— patent publication US20030148462A1, “Dual inhibition of sister chromatid separation at metaphase” (President and fellows of Harvard College, priority 2001, published 2003)
